The structures appear in SMILES notation.

Usually EC50 stands for the concentration that produces a half-maximal response. A low value points to a more potent agent.

The target in the assay is T1, human CYP11B2 (Homo sapiens, UniProt P19099).
T1 construct: expressed in transfected cells
T1 sequence (P19099 25-503): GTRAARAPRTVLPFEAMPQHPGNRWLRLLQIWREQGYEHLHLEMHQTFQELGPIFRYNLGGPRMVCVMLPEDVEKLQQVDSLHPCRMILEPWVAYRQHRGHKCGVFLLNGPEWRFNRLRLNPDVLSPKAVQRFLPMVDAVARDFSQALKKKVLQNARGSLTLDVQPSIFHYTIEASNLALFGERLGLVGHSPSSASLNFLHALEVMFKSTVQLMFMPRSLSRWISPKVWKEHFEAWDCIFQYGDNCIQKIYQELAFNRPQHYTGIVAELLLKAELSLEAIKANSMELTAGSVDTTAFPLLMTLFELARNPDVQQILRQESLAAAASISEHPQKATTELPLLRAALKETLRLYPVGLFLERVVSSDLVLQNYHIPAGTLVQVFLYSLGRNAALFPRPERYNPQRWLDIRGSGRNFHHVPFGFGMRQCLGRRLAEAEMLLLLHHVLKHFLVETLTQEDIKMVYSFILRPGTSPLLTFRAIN
Briefly: G-402 cellular enzyme assay, human CYP11B2 (aldosterone release, HTRF). In kind it is cell-based. Particulars: G-402 cells, 1 μM Deoxycorticosterone. The text has this:
Herein we identified the use of the G-402 cell line as a host cell to ectopically express (transiently or stably) enzymes of the CYP11 family. Specifically we developed stable G-402 cells expressing ectopically human CYP11B1, human CYP11B2, human CYP11A1, cynmolgus CYP11B1 or cynomolgus CYP11B2 enzyme activity. Importantly the identified cell line G-402 expresses co-factors (adrenodoxin and adrenodoxin reductase) important for the activity of the CYP11 family and no relevant enzyme activity of the CYP11 family (in comparison to H295R cells) was detected in these cells. Therefore the G-402 cell line is uniquely suited as a host cell for the ectopic expression of enzymes from the CYP11 family.
G-402 cells can be obtained from ATCC(CRL-1440) and were originally derived from a renal leiomyoblastoma.
The expression plasmids contain the ORF for either human/cyno CYP11B1 or CYP11B2 under the control of a suitable promoter (CMV-promoter) and a suitable resistance marker (neomycin). Using standard techniques the expression plasmid is transfected into G-402 cells and these cells are then selected for expressing the given resistance markers. Individual cell-clones are then selected and assessed for displaying the desired enzymatic activity using 11-Deoxycorticosterone (Cyp11B2) or 11-Deoxycortisol (Cyp11B1) as a substrate.
G-402 cells expressing CYP11 constructs were established as described above and maintained in McCoy's 5a Medium Modified, ATCC Catalog No. 30-2007 containing 10% FCS and 400 μg/ml G418 (Geneticin) at 37° C. under an atmosphere of 5% CO2/95% air.
Cellular enzyme assays were performed in DMEM/F12 medium containing 2.5% charcoal treated FCS and appropriate concentration of substrate (0.3-10 uM 11-Deoxycorticosterone, 11-Deoxycortisol or Corticosterone). For assaying enzymatic activity, cells were plated onto 96 well plates and incubated for 16 h. An aliquot of the supernatant is then transferred and analyzed for the concentration of the expected product (Aldosterone for CYP11B2; Cortisol for CYP11B1). The concentrations of these steroids can be determined using HTRF assays from CisBio analyzing either Aldosterone or Cortisol.
Inhibition of the release of produced steroids can be used as a measure of the respective enzyme inhibition by test compounds added during the cellular enzyme assay. The dose dependent inhibition of enzymatic activity by a compound is calculated by means of plotting added inhibitor concentrations (x-axes) vs. measured steroid/product level (y-axes). The inhibition is then calculated by fitting the following 4-parameter sigmoidal function (Morgan-Mercer-Flodin (MMF) model) to the raw data points using the least squares method:
[formula] wherein, A is the maximum y value, B is the EC50 factor determined using XLFit, C is the minimum y value and D is the slope value.
EC50 values for compounds claimed herein were tested with the G402-based assay system described. Cyp11B2 enzyme activity was tested in presence of 1 μM Deoxycorticosterone and variable amounts of inhibitors; Cyp11B1 enzyme activity was tested in presence of 1 μM Deoxycortisol and variable amounts of inhibitors.
(In general: Time-resolved FRET reads energy transfer from a long-lived donor to a nearby acceptor.)
Take `CS(=O)(=O)NC1CCc2c1cncc2N1CCc2cc(Cl)ccc2C1=O` (single isomer, unassigned) [Example 330, N-[(S or R)-4-(6-Chloro-1-oxo-3,4-dihydro-1H-isoquinolin-2-yl)-6,7-dihydro-5H-[2]pyrindin-7-yl]-methanesulfonamide]: the EC50 is greater than 30000 nM.
Next, `COc1ccc2c(c1)CCN(c1cccnc1)C2=O` [Example 94, 6-Methoxy-2-pyridin-3-yl-3,4 dihydro-2H-isoquinolin-1-one]: 2060 nM; `CC(=O)NC1CCCc2c1cncc2N1CCc2cc(Cl)ccc2C1=O` (single isomer, unassigned) [Example 320, N-((R or S)-6-Chloro-1-oxo-3,4,5′,6′,7′,8′-hexahydro-1H-[2,4′]biisoquinolinyl-8′-yl)-acetamide]: 8030 nM; `CCC(=O)NC1CCc2c1cncc2N1Cc2cc(Cl)ccc2C1=O` (single isomer, unassigned) [Example 338, N-[(S or R)-4-(5-Chloro-1-oxo-1,3-dihydro-isoindol-2-yl)-6,7-dihydro-5H-[2]pyrindin-7-yl]-propionamide]: greater than 30000 nM.
Next, `CN(C)C(=O)COc1cncc(N2CCc3cc(Cl)ccc3C2=O)c1` [Example 256, 2-[5-(6-Chloro-1-oxo-3,4-dihydro-1H-isoquinolin-2-yl)-pyridin-3-yloxy]-N,N-dimethyl-acetamide]: 774 nM; `CC[C@H]1c2cc(Cl)ccc2C(=O)N1c1cncc2c1CC[C@@H]2NS(C)(=O)=O` (single isomer, unassigned) [Example 370, N-[(S or R)-4-((S or R)-5-Chloro-3-ethyl-1-oxo-1,3-dihydro-isoindol-2-yl)-6,7-dihydro-5H-[2]pyrindin-7-yl]-methanesulfonamide]: 195 nM; `Cn1cnnc1-c1cncc(N2CCc3cc(Cl)ccc3C2=O)c1` [Example 58, 6-Chloro-2-[5-(4-methyl-4H-[1,2,4]triazol-3-yl)-pyridin-3-yl]-3,4-dihydro-2H-isoquinolin-1-one]: 2060 nM.
With `CCOc1ccc2c(n1)C(C)(C)N(c1cncc(CNc3cc[nH]n3)c1)C2=O` [Example 385, 2-Ethoxy-7,7-dimethyl-6-{5-[(1H-pyrazol-3-ylamino)-methyl]-pyridin-3-yl}-6,7-dihydro-pyrrolo[3,4-b]pyridin-5-one] the figure was 893 nM.
For `CCC(=O)Nc1cncc(N2CCc3cc(Cl)ccc3C2=O)c1` [Example 225, N-[5-(6-Chloro-1-oxo-3,4-dihydro-1H-isoquinolin-2-yl)-pyridin-3-yl]-propionamide], the concentration giving a half-maximal response (EC50) was 2550 nM.
Next, `CC1Cc2cc(Cl)ccc2C(=O)N1c1cncnc1` (stereo not drawn) [Example 90, 6-Chloro-3-methyl-2-pyrimidin-5-yl-3,4-dihydro-2H-isoquinolin-1-one]: 1230 nM; `CC(O)c1c(F)cncc1N1CCc2cc(Cl)ccc2C1=O` (stereo not drawn) [Example 62, 6-Chloro-2-[5-fluoro-4-(l-hydroxy-ethyl)-pyridin-3-yl]-3,4-dihydro-2H-isoquinolin-1-one]: 935 nM.
Next, `CC(=O)N[C@H]1CCCc2c1cncc2N1C(=O)c2ccc(Cl)cc2[C@@H]1C1CC1` (single isomer, unassigned) [Example 371, N-[(S or R)-4-((S or R)-5-Chloro-3-cyclopropyl-1-oxo-1,3-dihydro-isoindol-2-yl)-5,6,7,8-tetrahydro-isoquinolin-8-yl]-acetamide]: 4260 nM; `O=C(Nc1ccc(F)cc1)c1cncc(N2CCc3cc(Cl)ccc3C2=O)c1` [Example 45, 5-(6-Chloro-1-oxo-3,4-dihydro-1H-isoquinolin-2-yl)-N-(4-fluoro-phenyl)-nicotinamide]: 295 nM.
Next, `CC(=O)N[C@H]1CCCc2c1cncc2N1C(=O)c2ccc(Cl)cc2[C@H]1C1CC1` (single isomer, unassigned) [Example 373, N-[(S or R)-4-((R or S)-5-Chloro-3-cyclopropyl-1-oxo-1,3-dihydro-isoindol-2-yl)-5,6,7,8-tetrahydro-isoquinolin-8-yl]-acetamide]: greater than 30000 nM; `CS(=O)(=O)Nc1cncc(N2CCc3cc(Cl)ccc3C2=O)c1` [Example 220, N-[5-(6-Chloro-1-oxo-3,4-dihydro-1H-isoquinolin-2-yl)-pyridin-3-yl]-methanesulfonamide]: 1080 nM; `CCS(=O)(=O)NC1CCc2c1cncc2N1Cc2cc(Cl)ccc2C1=O` (single isomer, unassigned) [Example 337, Ethanesulfonic acid [(S or R)-4-(5-chloro-1-oxo-1,3-dihydro-isoindol-2-yl)-6,7-dihydro-5H-[2]pyrindin-7-yl]-amide]: 24300 nM.
As for `O=C1c2ccc(Cl)cc2CCN1c1cncnc1` [Example 51, 6-Chloro-2-pyrimidin-5-yl-3,4-dihydro-2H-isoquinolin-1-one], the midpoint of the response, the EC50, lay at 2680 nM.
Regarding `O=C1c2ccc(Cl)cc2CCN1c1cncc(N2C(=O)CC[C@H]2CO)c1` [Example 50, 6-Chloro-2-[5-((S)-2-hydroxymethyl-5-oxo-pyrrolidin-1-yl)-pyridin-3-yl]-3,4-dihydro-2H-isoquinolin-1-one], a half-maximal response (EC50) required 1500 nM.
With `COC(OC)c1ccncc1N1CCc2cc(Cl)ccc2C1=O` [Example 61, 6-Chloro-2-(4-dimethoxymethyl-pyridin-3-yl)-3,4-dihydro-2H-isoquinolin-1-one] the figure was 2830 nM; with `CC1c2ccc(Cl)cc2C(=O)N1c1cccnc1` (stereo not drawn) [Example 119, 6-Chloro-3-methyl-2-pyridin-3-yl-2,3-dihydro-isoindol-1-one], 722 nM; with `CNC(=O)c1cncc(N2CCc3cc(Cl)ccc3C2=O)c1` [Example 43, 5-(6-Chloro-1-oxo-3,4-dihydro-1H-isoquinolin-2-yl)-N-methyl-nicotinamide], 372 nM.
Next, `O=C1c2ccc(Cl)cc2CCN1c1cncc(-c2ccc(Cl)c(Cl)c2)c1` [Example 241, 6-Chloro-2-[5-(3,4-dichloro-phenyl)-pyridin-3-yl]-3,4-dihydro-2H-isoquinolin-1-one]: 582 nM; `CC(=O)NC1CCc2c1cncc2N1CCc2cc(Cl)ccc2C1=O` (single isomer, unassigned) [Example 332, N-[(R or S)-4-(6-Chloro-1-oxo-3,4-dihydro-1H-isoquinolin-2-yl)-6,7-dihydro-5H-[2]pyrindin-7-yl]-acetamide]: 14800 nM; `CC(=O)NC1CCc2c1cncc2N1Cc2cc(Cl)ccc2C1=O` (single isomer, unassigned; (-)) [Example 318, (−)-N—[(S or R)-4-(5-Chloro-1-oxo-1,3-dihydro-isoindol-2-yl)-6,7-dihydro-5H-[2]pyrindin-7-yl]-acetamide]: greater than 30000 nM.
Next, `CC1(C)CN(c2cccnc2)C(=O)c2ccc(Cl)cc21` [Example 102, 6-Chloro-4,4-dimethyl-2-pyridin-3-yl-3,4-dihydro-2H-isoquinolin-1-one]: 1540 nM.
`N#Cc1ccncc1N1CCc2cc(Cl)ccc2C1=O` [Example 74, 3-(6-Chloro-1-oxo-3,4-dihydro-1H-isoquinolin-2-yl)-isonicotinonitrile] yielded an EC50 of 449 nM.
With `C[C@@H]1Cc2cc(Cl)ccc2C(=O)N1c1cccnc1` [Example 91, (R)-6-Chloro-3-methyl-2-pyridin-3-yl-3,4-dihydro-2H-isoquinolin-1-one] the figure was 395 nM.

These data come from US9133158B2, “Bicyclic dihydroisoquinoline-1-one derivatives” (Hoffmann-La Roche Inc., priority 2011, dated 2015).
